Experimental data as given in patent US8501757B2, “Substituted phenylamine carboxamide analogs as mGluR5 negative allosteric modulators and methods of making and using the same” (priority 2009, dated 2013).

These compounds were tested against T1, rat mGluR5 (Rattus norvegicus, UniProt P31424) (assay: not given). Details: read-out: mGluR5, IC50 rat; HEK cells expressing rat mGluR5.
T1 sequence (P31424 21-1203): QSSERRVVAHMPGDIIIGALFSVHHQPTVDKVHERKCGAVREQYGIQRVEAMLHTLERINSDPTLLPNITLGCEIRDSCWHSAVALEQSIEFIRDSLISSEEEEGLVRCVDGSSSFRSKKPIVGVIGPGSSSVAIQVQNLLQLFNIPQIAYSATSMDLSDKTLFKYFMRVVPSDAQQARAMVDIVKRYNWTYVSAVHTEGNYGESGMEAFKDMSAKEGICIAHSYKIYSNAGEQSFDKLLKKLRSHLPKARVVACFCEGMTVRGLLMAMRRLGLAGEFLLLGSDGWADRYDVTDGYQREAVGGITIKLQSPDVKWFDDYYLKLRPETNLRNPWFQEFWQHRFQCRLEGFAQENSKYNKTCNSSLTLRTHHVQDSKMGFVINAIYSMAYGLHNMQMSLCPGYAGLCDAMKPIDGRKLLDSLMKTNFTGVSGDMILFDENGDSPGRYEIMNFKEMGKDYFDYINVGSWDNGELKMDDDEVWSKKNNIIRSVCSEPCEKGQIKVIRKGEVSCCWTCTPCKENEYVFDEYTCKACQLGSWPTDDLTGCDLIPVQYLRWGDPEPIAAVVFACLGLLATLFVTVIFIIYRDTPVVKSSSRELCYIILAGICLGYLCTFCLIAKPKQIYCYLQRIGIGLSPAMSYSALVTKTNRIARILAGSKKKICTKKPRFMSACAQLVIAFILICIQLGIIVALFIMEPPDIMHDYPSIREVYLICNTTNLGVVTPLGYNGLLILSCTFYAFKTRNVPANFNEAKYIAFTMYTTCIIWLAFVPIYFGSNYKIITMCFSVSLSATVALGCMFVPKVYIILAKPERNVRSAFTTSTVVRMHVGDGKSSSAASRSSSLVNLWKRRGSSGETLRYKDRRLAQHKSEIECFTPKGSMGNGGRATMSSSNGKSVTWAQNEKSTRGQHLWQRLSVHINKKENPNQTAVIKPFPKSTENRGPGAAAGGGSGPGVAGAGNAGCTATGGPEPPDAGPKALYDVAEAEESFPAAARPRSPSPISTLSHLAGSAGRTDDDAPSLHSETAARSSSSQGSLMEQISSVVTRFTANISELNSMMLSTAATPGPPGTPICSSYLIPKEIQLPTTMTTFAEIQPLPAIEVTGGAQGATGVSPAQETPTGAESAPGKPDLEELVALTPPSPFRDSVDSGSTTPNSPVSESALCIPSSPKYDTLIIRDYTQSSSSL

| IC50 | Compound |
| --- | --- |
| 61 ± 15 nM | N#Cc1cccc(C(=O)Nc2cc(F)cc(Oc3cncnc3)c2)c1 [drawing 665] |

These compounds were tested against T1, rat mGluR5 (assay: cell-based). Details: not given.

| IC50 | Compound |
| --- | --- |
| 84 ± 14 nM | CN(c1cncnc1)c1cccc(NC(=O)c2cccc(C#N)c2)c1 |
| 2230 nM | Cc1ncccc1Oc1cccc(NC(=O)c2cccc(Cl)c2)c1 |
| 8340 nM | COc1cccc(C(=O)Nc2cccc(Oc3cccnc3)c2)n1 |
| 51 nM | CN(c1cncnc1)c1cc(NC(=O)c2cccc(C#N)c2)ccc1F |
| 230 nM | CC(C)Oc1ccnc(C(=O)Nc2cc(F)cc(Oc3cncnc3)c2)c1 |
| 31 ± 5 nM | CN(c1cccnc1)c1cccc(NC(=O)c2cccc(Cl)c2)c1 |
| 80 nM | CN(c1cncnc1)c1ccc(F)c(NC(=O)c2cccc(Cl)c2)c1 |
| 148 nM | CN(c1cncnc1)c1cc(NC(=O)c2cccc(C#N)c2)cc(F)c1F |
| 17 nM | N#Cc1cc(NC(=O)c2cc(Br)ccn2)cc(Oc2cncnc2)c1 |
| 108 ± 32 nM | COc1cccc(C(=O)Nc2cccc(N(C)c3cncnc3)c2)c1 |
| 3530 nM | O=C(Nc1cccc(Oc2cccnc2)c1)c1cccc(F)n1 |
| 80 nM | CN(c1cncnc1)c1cc(NC(=O)c2cscn2)cc(F)c1F |
| 14 nM | CN(c1cncnc1)c1cc(NC(=O)c2cccc(Br)c2)ccc1F |
| 84 nM | [2H]C([2H])([2H])N(c1cncnc1)c1cc(NC(=O)c2cccc(C#N)c2)ccc1Cl |
| 2910 nM | CN(c1cncnc1)c1cc(NC(=O)c2cccc(O)n2)ccc1F |
| 87 nM | N#Cc1ccc(F)c(C(=O)Nc2cc(F)cc(Oc3cncnc3)c2)c1 |
| 127 nM | CN(c1cncnc1)c1cc(F)cc(NC(=O)c2cccc(F)c2)c1 |
| > 10000 nM | Cc1ccc(Oc2cc(Cl)cc(NC(=O)c3cccc(Cl)c3)c2)cn1 |
| > 10000 nM | CC(C)CN(c1cncnc1)c1cc(NC(=O)c2cccc(Cl)c2)ccc1Cl |
| 59 nM | CN(c1cncnc1)c1cc(NC(=O)c2cccc(C#N)c2)ccc1Cl |
| 53 nM | O=C(Nc1cccc(Oc2cncnc2)c1)c1cccc(Br)c1 |
| 6870 nM | Cc1cccc(C(=O)Nc2cc(Cl)cc(Oc3ccc(C)nc3)c2)c1 |
| 28 nM | CN(c1cncnc1)c1cc(NC(=O)c2cccc(F)c2)cc(F)c1F |

| IC50 | Compound |
| --- | --- |
| 4210 nM | Cc1nc(C(=O)Nc2cccc(Oc3cccnc3)c2)cs1 |
| 138 nM | CN(c1cncnc1)c1cc(Cl)cc(NC(=O)c2cccc(Cl)c2)c1 |
| 286 nM | Cc1cccc(C(=O)Nc2cccc(Oc3cccnc3)c2)c1 |
| 16 nM | N#Cc1cc(NC(=O)c2cc(Cl)ccn2)cc(Oc2cncnc2)c1 |
| 16 nM | CN(c1cncnc1)c1cc(NC(=O)c2cccc(F)c2)ccc1Cl |
| 656 nM | CCN(c1cccnc1)c1cc(F)cc(NC(=O)c2cccc(Br)c2)c1 |
| 2560 nM | O=C(Nc1cc(F)cc(Oc2cncnc2)c1)c1cccc(F)n1 |
| 75 ± 13 nM | O=C(Nc1cccc(Oc2cncnc2)c1)c1cccc(Cl)c1 |
| 388 nM | CCN(c1cccnc1)c1cc(F)cc(NC(=O)c2cccc(Cl)c2)c1 |
| 34 ± 7 nM | CN(c1cncnc1)c1cccc(NC(=O)c2cccc(C(F)(F)F)n2)c1 |
| 5370 nM | O=C(Nc1cc(Cl)cc(Oc2cncc(F)c2)c1)c1cccc(Cl)n1 |
| 1270 nM | O=C(Nc1cccc(Oc2cccnc2)c1)c1cscn1 |
| > 10000 nM | CN(c1cncc(Cl)c1)c1cccc(NC(=O)c2cccc(C#N)c2)c1 |
| 6250 nM | O=C(Nc1cccc(Oc2cccnc2)c1)c1ccc(F)c(Cl)c1 |
| 9.8 nM | CN(c1cncnc1)c1cc(NC(=O)c2cccc(F)c2)ccc1F |
| 208 nM | CCN(c1cccnc1)c1cccc(NC(=O)c2cccc(Br)c2)c1 |
| 124 nM | O=C(Nc1cccc(Oc2cncc(F)c2)c1)c1cccc(Br)c1 |
| 5420 nM | O=C(Nc1cc(F)c(F)c(Oc2cncnc2)c1)c1ccc(F)cn1 |
| 63 nM | COc1ccnc(C(=O)Nc2cc(C#N)cc(Oc3cncnc3)c2)c1 |
| 536 nM | N#Cc1cccc(C(=O)Nc2cccc(Oc3cccnc3)c2)c1 |
| 155 nM | N#Cc1cccc(C(=O)Nc2cccc(Oc3cncc(Cl)c3)c2)c1 |
| 580 nM | N#Cc1cccc(C(=O)Nc2cccc(Oc3cncnc3)c2)c1 |
| 63 ± 9 nM | N#Cc1cccc(C(=O)Nc2cc(Cl)cc(Oc3cncnc3)c2)c1 |

| IC50 | Compound |
| --- | --- |
| > 10000 nM | CN(c1cncc(Cl)c1)c1cccc(NC(=O)c2cccc(Cl)c2)c1 |
| 1600 nM | O=C(Nc1cccc(Oc2cccnc2)c1)c1nccs1 |
| 21 ± 4 nM | CN(c1cncnc1)c1cccc(NC(=O)c2cccc(F)c2)c1 |
| 417 nM | O=C(Nc1cc(F)cc(Oc2cncnc2)c1)c1cccc(OC(F)(F)F)c1 |
| 43 nM | CCN(c1cncnc1)c1cccc(NC(=O)c2cccc(C#N)c2)c1 |
| > 30000 nM | O=C(Nc1cc(Oc2cccnc2)cc(C(F)(F)F)c1)c1cccc(Cl)c1 |
| 1640 nM | N#Cc1cc(C(=O)Nc2cc(F)cc(Oc3cncnc3)c2)ccc1F |
| 465 nM | Cc1csc(C(=O)Nc2cccc(Oc3cccnc3)c2)n1 |
| 8.6 nM | CN(c1cncnc1)c1cc(NC(=O)c2cccc(F)n2)ccc1F |
| 111 ± 21 nM | CCN(c1cccnc1)c1cccc(NC(=O)c2cccc(Cl)c2)c1 |
| 443 nM | N#Cc1cc(NC(=O)c2cccc(C#N)c2)cc(Oc2cncnc2)c1 |
| 5990 nM | O=C(Nc1cccc(Oc2cccnc2)c1)c1cccc(C(F)(F)F)c1 |
| 1690 nM | O=C(Nc1cc(F)c(F)c(Oc2cncnc2)c1)c1cc(F)ccn1 |
| 5490 nM | CCCN(c1cccnc1)c1cccc(NC(=O)c2cccc(Cl)c2)c1 |
| > 10000 nM | O=C(Nc1cccc(Oc2cccnc2)c1)c1cccc(Cl)c1F |
| 83 nM | CN(c1cccnc1)c1cccc(NC(=O)c2cccc(Br)c2)c1 |
| 288 nM | O=C(Nc1cc(F)cc(Oc2cncnc2)c1)c1cccc(F)c1 |
| 311 nM | COc1cccc(C(=O)Nc2cc(F)cc(Oc3cncnc3)c2)c1 |
| 61 ± 15 nM | N#Cc1cccc(C(=O)Nc2cc(F)cc(Oc3cncnc3)c2)c1 [drawing 550] |
| 36 nM | CN(c1cncnc1)c1cc(NC(=O)c2cccc(Br)c2)ccc1Cl |
| 120 nM | CCN(c1cccnc1)c1cccc(NC(=O)c2cccc(C#N)c2)c1 |

What follows are compounds tested against human mGluR5 (Homo sapiens, UniProt P41594) (assay: cell-based). Details: not given.
human mGluR5, sequence (P41594 21-1212): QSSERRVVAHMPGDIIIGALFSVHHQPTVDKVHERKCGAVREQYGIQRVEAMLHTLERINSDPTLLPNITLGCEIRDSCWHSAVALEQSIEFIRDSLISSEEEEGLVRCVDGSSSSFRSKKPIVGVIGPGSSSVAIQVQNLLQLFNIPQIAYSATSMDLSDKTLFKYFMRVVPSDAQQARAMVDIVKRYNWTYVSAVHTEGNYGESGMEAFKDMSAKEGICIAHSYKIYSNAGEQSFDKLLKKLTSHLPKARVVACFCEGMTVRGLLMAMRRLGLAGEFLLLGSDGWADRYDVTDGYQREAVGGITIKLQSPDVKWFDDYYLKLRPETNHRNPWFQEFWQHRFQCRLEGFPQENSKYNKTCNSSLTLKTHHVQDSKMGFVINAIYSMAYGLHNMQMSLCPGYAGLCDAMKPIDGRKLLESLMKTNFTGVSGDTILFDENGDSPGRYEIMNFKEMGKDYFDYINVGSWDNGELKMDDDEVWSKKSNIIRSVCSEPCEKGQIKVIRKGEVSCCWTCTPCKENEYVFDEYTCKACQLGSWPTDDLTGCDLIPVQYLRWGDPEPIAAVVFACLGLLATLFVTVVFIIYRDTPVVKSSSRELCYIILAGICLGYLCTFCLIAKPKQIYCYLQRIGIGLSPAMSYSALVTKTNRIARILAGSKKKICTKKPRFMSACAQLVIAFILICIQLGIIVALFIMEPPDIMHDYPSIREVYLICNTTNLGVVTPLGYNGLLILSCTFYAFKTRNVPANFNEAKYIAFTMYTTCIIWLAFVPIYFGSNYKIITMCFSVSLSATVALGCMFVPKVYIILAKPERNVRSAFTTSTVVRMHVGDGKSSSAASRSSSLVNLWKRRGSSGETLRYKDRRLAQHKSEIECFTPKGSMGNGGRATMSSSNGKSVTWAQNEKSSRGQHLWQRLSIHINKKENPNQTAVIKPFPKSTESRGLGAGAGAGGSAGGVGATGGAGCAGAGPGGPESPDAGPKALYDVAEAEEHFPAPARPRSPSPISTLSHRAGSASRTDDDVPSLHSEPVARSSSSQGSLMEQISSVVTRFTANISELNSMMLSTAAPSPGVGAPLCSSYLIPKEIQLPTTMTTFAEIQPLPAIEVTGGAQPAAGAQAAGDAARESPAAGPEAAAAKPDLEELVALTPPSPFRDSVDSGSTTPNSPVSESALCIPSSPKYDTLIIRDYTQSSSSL

| IC50 | Compound |
| --- | --- |
| 11 nM | CN(c1cncnc1)c1cc(NC(=O)c2cccc(Cl)c2)ccc1F |
| 30 nM | O=C(Nc1cc(Cl)cc(Oc2cncnc2)c1)c1cccc(Cl)c1 |
| 249 nM | N#Cc1cccc(C(=O)Nc2cccc(Oc3cncc(F)c3)c2)c1 |
| 60 nM | N#Cc1cccc(C(=O)Nc2cc(F)cc(Oc3cncnc3)c2)c1 [drawing 665] |
| 94 nM | N#Cc1cc(NC(=O)c2cccc(Br)c2)cc(Oc2cncnc2)c1 |
